Laboratory results reported in patent publication US20250115578A1, “AROMATIC FUSED RING NAV1.8 INHIBITOR, AND USE THEREOF” (CHENGDU KANGHONG PHARMACEUTICAL CO., LTD., priority 2022, published 2025).
≈ marks a conversion by molar mass, not a printed value.

Tests used:
[1] = Assay of kinetic solubility; format: physicochemical; details: aqueous buffer, kinetic from dmso stock, pH 3.5 phosphate buffer, 25° C.
[2] = test system: postoperative pain model in rats; assay: Efficacy test in postoperative pain model in rats (mechanical allodynia, PWT); format: in vivo, Sprague-Dawley male rats; details: single oral 30 mg/kg; for Inhibition of mechanical hyperalgesia induced by postoperative pain model: at 1 h, 2 h and 4 h after administration
Procedure: Sprague-Dawley male rats, purchased from Zhejiang Vital River Laboratory Animal Technology Co., LTD
Compounds of the example 10, 14, 16, 31 of the invention were weighted and prepared into solutions of 3 mg/mL using 5% DMSO (Anhui Senrise Technologies Co., Ltd)+30% Solutol HS15 (Beijing Ouhe Technology Co., LTD.)+65% water for injection, and administered at a volume of 10 mL/kg by gavage. The dosage was 30 mg/kg.
Animals were anesthetized with Zoletil 50+ Xylazine Hydrochloride (20 mg/kg+8 mg/kg, intraperitoneally injected). The surgical area on the plantar skin of the left hind paw was disinfected three times with iodophor and 70% ethanol, and the surgery was started after the skin was dry.
A longitudinal incision about 1 cm was made towards the toes starting from 0.5 cm away from the heel of the left hind paw. After the skin was incised, the flexor digitorum brevis was raised and longitudinal blunt injury was caused. After hemostasis by pressing, the wound was sutured. After surgery, animals were placed on an electric warm pad and 5 mL of physiological saline was injected subcutaneously to prevent dehydration. 24 h after modeling, all animals (including the normal control group) were tested for base mechanical allodynia (PWT). The modeling animals without mechanical hypersensitivity (PWT greater than 5 g) were excluded and […] were selected and randomly divided into 5 groups, with 9 animals in each group except 5 in the normal group (negative control group).
The animals were weighed and administered orally at a volume of 10 mL/kg. Except normal control animals, other animals were given a single dose of compounds, and mechanical allodynia was performed by test fibers on all groups of animals at 1 h, 2 h and 4 h after dosing. The rats were placed individually in a plexiglass box with a grid at the bottom to ensure that the paws of the rats could be tested. The rats would acclimate for 15 minutes before the test. After the acclimation was completed, the test fibers were used to test on the plantar center of the rat's left hind paw. Pressed the test fiber vertically against the skin and applied force to bend the fiber for 6 to 8 seconds, with 5 second intervals between each test. The rapid withdrawal of the animal's paws during the test was recorded as a pain response. The animal's paw withdrawal when the fibers left the animal's skin was also recorded as a pain response. If the animal moves or walks around, it's not recorded as a pain response, and the test should be repeated.
Mechanical hyperalgesia was expressed as the paw withdrawal threshold (PWT) in the rat behavioral test, which was calculated according to the following formula:
50% response threshold (g)=(10^(Xf+kδ)/10,000 • Xf=final test fiber value used in the test • k=table value (Chaplan et al. 1994, page 62) • δ=mean deviation
Data were collected with excel software and analyzed with Prism 7.0 (Graph pad software, Inc.) software by two-way ANOVA followed by Dunnett multiple comparison test.

NC(=O)c1cc(NC(=O)c2cc3ccccc3nc2N2CCCC(F)(F)CC2)ccn1 [Example 08, N-(2-carbamoylpyridin-4-yl)-2-(4,4-difluoroazepan-1-yl)quinoline-3-carboxamide]
solubility kinetic at 2 h [1]: 175 µM (≈ 74.5 µg/mL)

NC(=O)c1cc(NC(=O)c2cc3cc(F)c(F)cc3nc2N2CCCC(F)(F)CC2)ccn1 [Example 10, N-(2-carbamoylpyridin-4-yl)-2-(4,4-difluoroazepan-1-yl)-6,7-difluoroquinoline-3-carboxamide]
Inhibition of mechanical hyperalgesia induced by postoperative pain model [2]: inhibited mechanical hyperalgesia

NS(=O)(=O)c1cc(NC(=O)c2cc3ccccc3nc2N2CCCC(F)(F)CC2)ccn1 [Example 14, 2-(4,4-difluoroazepan-1-yl)-N-(2-sulfamoylpyridine-4-yl) quinoline-3-carboxamide]
solubility kinetic at 2 h [1]: 271 µM (≈ 125 µg/mL)
Inhibition of mechanical hyperalgesia induced by postoperative pain model [2]: inhibited mechanical hyperalgesia
Efficacy compared with example compound 31 ([2]; at 1 h and 4 h after administration): significantly stronger than that of example compound 31

NC(=O)c1cc(NC(=O)c2nc3ccccc3nc2N2CCCC(F)(F)CC2)ccn1 [Example 05, N-(2-carbamoylpyridin-4-yl)-3-(4,4-difluoroazepan-1-yl)quinoxaline-2-carboxamide]
solubility kinetic at 2 h [1]: 0.39 µM (≈ 0.166 µg/mL)

NC(=O)c1cc(NC(=O)c2nc3ccccc3nc2N2CCCC(F)(F)CC2)ccc1F [Example 02, N-(3-carbamoyl-4-fluorophenyl)-3-(4,4-difluoroazepan-1-yl)quinoxaline-2-carboxamide]
solubility kinetic at 2 h [1]: 2.8 µM (≈ 1.24 µg/mL)

NS(=O)(=O)c1cccc(NC(=O)c2cc3cc(F)c(F)cc3nc2N2CCCC(F)(F)CC2)c1 [Example 16, 2-(4,4-difluoroazepan-1-yl)-6,7-difluoro-N-(3-sulfamoylphenyl) quinoline-3-carboxamide]
Efficacy compared with example compound 31 ([2]; after 1 h of administration): significantly more effective than example compound 31
Inhibition of mechanical hyperalgesia induced by postoperative pain model [2]: inhibited mechanical hyperalgesia
